Reference: ChEMBL document CHEMBL5724914, “Linking interpersonal differences in gut microbiota composition and drug biotransformation activity” (2024)

How the values were obtained:
[1] = (§1) The drug is tested on Z-030 corresponding to mouse gut metagenome with ENA study accession number: PRJEB37062 and ENA sample accession number: ERS12561829 for biotransformation under anaerobic condition. The drug concentrations were measured over 9 timepoints collected between 0 and 24 hours of incubation by liquid-chromatography-coupled mass spectrometry (LC–MS); conditions: 2 µM
[2] = as §1, with “Z-029” for “Z-030”, “rat” for “mouse”, “ERS12561828” for “ERS12561829”; conditions: 2 µM
[3] = as §1, with “Z-028” for “Z-030”, “ERS12561827” for “ERS12561829”; conditions: 2 µM
[4] = as §1, with “Z-027” for “Z-030”, “to” for “to mouse gut”, “ERS12561826” for “ERS12561829”; conditions: 2 µM
[5] = as §1, with “Z-026” for “Z-030”, “to” for “to mouse gut”, “ERS12561825” for “ERS12561829”; conditions: 2 µM
[6] = as §1, with “Z-025” for “Z-030”, “rabbit” for “mouse”, “ERS12561824” for “ERS12561829”; conditions: 2 µM
[7] = as §1, with “Z-024” for “Z-030”, “pig” for “mouse”, “ERS12561823” for “ERS12561829”; conditions: 2 µM
[8] = as §1, with “Z-023” for “Z-030”, “to” for “to mouse gut”, “ERS12561822” for “ERS12561829”; conditions: 2 µM
[9] = as §1, with “Z-022” for “Z-030”, “ERS12561821” for “ERS12561829”; conditions: 2 µM
[10] = as §1, with “Z-021” for “Z-030”, “to” for “to mouse gut”, “ERS12561820” for “ERS12561829”; conditions: 2 µM
[11] = as §1, with “Z-020” for “Z-030”, “rabbit” for “mouse”, “ERS12561819” for “ERS12561829”; conditions: 2 µM
[12] = as §1, with “Z-019” for “Z-030”, “rat” for “mouse”, “ERS12561818” for “ERS12561829”; conditions: 2 µM
[13] = as §1, with “Z-018” for “Z-030”, “pig” for “mouse”, “ERS12561817” for “ERS12561829”; conditions: 2 µM
[14] = as §1, with “Z-017” for “Z-030”, “ERS12561816” for “ERS12561829”; conditions: 2 µM
[15] = as §1, with “Z-016” for “Z-030”, “ERS12561815” for “ERS12561829”; conditions: 2 µM
[16] = as §1, with “Z-014” for “Z-030”, “rat” for “mouse”, “ERS12561814” for “ERS12561829”; conditions: 2 µM
[17] = as §1, with “Z-013” for “Z-030”, “rabbit” for “mouse”, “ERS12561813” for “ERS12561829”; conditions: 2 µM
[18] = as §1, with “Z-012” for “Z-030”, “to” for “to mouse gut”, “ERS12561812” for “ERS12561829”; conditions: 2 µM
[19] = as §1, with “Z-011” for “Z-030”, “ERS12561811” for “ERS12561829”; conditions: 2 µM
[20] = as §1, with “Z-010” for “Z-030”, “to” for “to mouse gut”, “ERS12561810” for “ERS12561829”; conditions: 2 µM
[21] = as §1, with “Z-009” for “Z-030”, “pig” for “mouse”, “ERS12561809” for “ERS12561829”; conditions: 2 µM
[22] = as §1, with “Z-008” for “Z-030”, “to” for “to mouse gut”, “ERS12561808” for “ERS12561829”; conditions: 2 µM
[23] = as §1, with “Z-007” for “Z-030”, “rat” for “mouse”, “ERS12561807” for “ERS12561829”; conditions: 2 µM
[24] = as §1, with “Z-006” for “Z-030”, “ERS12561806” for “ERS12561829”; conditions: 2 µM
[25] = as §1, with “Z-005” for “Z-030”, “to” for “to mouse gut”, “ERS12561805” for “ERS12561829”; conditions: 2 µM
[26] = as §1, with “Z-004” for “Z-030”, “to” for “to mouse gut”, “ERS12561804” for “ERS12561829”; conditions: 2 µM
[27] = as §1, with “Z-003” for “Z-030”, “pig” for “mouse”, “ERS12561803” for “ERS12561829”; conditions: 2 µM
[28] = as §1, with “Z-002” for “Z-030”, “rabbit” for “mouse”, “ERS12561802” for “ERS12561829”; conditions: 2 µM
[29] = as §1, with “Z-001” for “Z-030”, “ERS12561801” for “ERS12561829”; conditions: 2 µM
[30] = as §1, with “WLS-220” for “Z-030”, “human” for “mouse”, “ERS12561769” for “ERS12561829”; conditions: 2 µM
[31] = human gut metagenome, 24 h, 2 µM
[32] = human gut metagenome, 24 h, 2 µM; remark: listed apart in the source
[33] = human gut metagenome, 24 h, 2 µM; remark: listed apart in the source
[34] = human gut metagenome, 24 h, 2 µM; remark: listed apart in the source
[35] = human gut metagenome, 24 h, 2 µM; remark: listed apart in the source
[36] = human gut metagenome, 24 h, 2 µM; remark: listed apart in the source
Note: call rule not given here.

Bacterial Biotransformation [1]: Compound metabolized
Bacterial Biotransformation [2]: Compound metabolized
Bacterial Biotransformation [3]: Compound metabolized
Bacterial Biotransformation [4]: Compound metabolized
Bacterial Biotransformation [5]: Compound metabolized
Bacterial Biotransformation [6]: Compound metabolized
Bacterial Biotransformation [7]: Compound metabolized
Bacterial Biotransformation [8]: Compound metabolized
Bacterial Biotransformation [9]: Compound metabolized
Bacterial Biotransformation [10]: Compound metabolized
Bacterial Biotransformation [11]: Compound metabolized
Bacterial Biotransformation [12]: Compound NOT metabolized
Bacterial Biotransformation [13]: Compound metabolized
Bacterial Biotransformation [14]: Compound metabolized
Bacterial Biotransformation [15]: Compound metabolized
Bacterial Biotransformation [16]: Compound metabolized
Bacterial Biotransformation [17]: Compound metabolized
Bacterial Biotransformation [18]: Compound metabolized
Bacterial Biotransformation [19]: Compound metabolized
Bacterial Biotransformation [20]: Compound metabolized
Bacterial Biotransformation [21]: Compound metabolized
Bacterial Biotransformation [22]: Compound metabolized
Bacterial Biotransformation [23]: Compound metabolized
Bacterial Biotransformation [24]: Compound metabolized
Bacterial Biotransformation [25]: Compound metabolized
Bacterial Biotransformation [26]: Compound metabolized
Bacterial Biotransformation [27]: Compound metabolized
Bacterial Biotransformation [28]: Compound metabolized
Bacterial Biotransformation [29]: Compound metabolized
Bacterial Biotransformation [30]: Compound NOT metabolized
Bacterial Biotransformation [31]: Compound metabolized
Bacterial Biotransformation [32]: Compound NOT metabolized
Bacterial Biotransformation [33]: Compound metabolized
Bacterial Biotransformation [34]: Compound metabolized
Bacterial Biotransformation [35]: Compound metabolized
Bacterial Biotransformation [36]: Compound metabolized
SMILES: CCN(CC)C(=O)/C(C#N)=C/c1cc(O)c(O)c([N+](=O)[O-])c1 [ENTACAPONE]
